From PubChem BioAssay AID264 (DTP/NCI, 2004)
Several values for one entry are separate records, joined by “and”; a condition that tells them apart may be missing. Equal values may be shown once. Inconclusive results are not listed.

Tested on: nude mice, LX-1 lung xenograft intrarenal, tumor weight T/C
Experiment: NCI In Vivo Anticancer Drug Screen. Data for tumor model Human Lung LX-1 Xenograft (intrarenal inoculation) in NU/NU Swiss (nude) mice
Conditions: endpoint: mean tumor weight change, higher = larger tumour
Procedure, shortened: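 Activity was scored by measuring tumors in treated animals and in vehicle controls, then reporting the treated result as a fraction of the control result.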

[1] = dose: 50.0 mg/kg/injection, schedule: Q01DX010 (sc), vehicle: water
[2] = dose: 400.0 mg/kg/injection, schedule: Q01DX010 (sc), vehicle: Klucel (hydroxypropylcellulose) (HPC)
[3] = dose: 100.0 mg/kg/injection, schedule: Q01DX010 (sc), vehicle: saline
[4] = dose: 200.0 mg/kg/injection, schedule: Q01DX010 (sc), vehicle: saline
[5] = dose: 400.0 mg/kg/injection, schedule: Q01DX010 (sc), vehicle: saline
[6] = dose: 300.0 mg/kg/injection, schedule: Q04DX003 (sc), vehicle: suspension in saline
[7] = dose: 600.0 mg/kg/injection, schedule: Q04DX003 (sc), vehicle: suspension in saline
[8] = dose: 1200.0 mg/kg/injection, schedule: Q04DX003 (sc), vehicle: suspension in saline
[9] = dose: 25.0 mg/kg/injection, schedule: Q01DX010 (sc), vehicle: saline with Tween-80
[10] = dose: 50.0 mg/kg/injection, schedule: Q01DX010 (sc), vehicle: saline with Tween-80
[11] = dose: 300.0 mg/kg/injection, schedule: Q04DX003 (sc), vehicle: saline with Tween-80
[12] = dose: 600.0 mg/kg/injection, schedule: Q04DX003 (sc), vehicle: saline with Tween-80
[13] = dose: 1200.0 mg/kg/injection, schedule: Q04DX003 (sc), vehicle: saline with Tween-80
[14] = dose: 150.0 mg/kg/injection, schedule: Q04DX003 (sc), vehicle: saline

`CS(=O)(=O)OCCCNCCCOS(C)(=O)=O` was tested. Which T/C (dose: 75.0 mg/kg/injection, schedule: Q04DX003 (sc), vehicle: saline) did it give?
Its T/C is 71 % of control.

What does the source list for `O=C(Nc1ccc(C2=NCCN2)cc1)c1ccc(C(=O)Nc2ccc(C3=NCCN3)cc2)c(Cl)c1`?
T/C (dose: 12.5 mg/kg/injection, schedule: Q01DX010 (sc), vehicle: water): 74 % of control; T/C (dose: 25.0 mg/kg/injection, schedule: Q01DX010 (sc), vehicle: water): 71 % of control; T/C [1]: 34 % of control

Which results are given for `O=C1c2ccccc2C(=O)c2c3c(cc(NCCNCCO)c21)N(CCO)CCN3`?
T/C (dose: 200.0 mg/kg/injection, schedule: Q04DX003 (sc), vehicle: DMSO): 122 % of control; T/C (dose: 400.0 mg/kg/injection, schedule: Q04DX003 (sc), vehicle: DMSO): 86 % of control; T/C (dose: 800.0 mg/kg/injection, schedule: Q04DX003 (sc), vehicle: DMSO): 83 % of control

What does the source list for `CC1=C(O)C(=O)[C@@H]2O[C@@H]2C1=O`?
T/C (dose: 1.25 mg/kg/injection, schedule: Q04DX003 (sc), vehicle: saline): 103 % of control; T/C (dose: 2.5 mg/kg/injection, schedule: Q04DX003 (sc), vehicle: saline): 106 % of control; T/C (dose: 5.0 mg/kg/injection, schedule: Q04DX003 (sc), vehicle: saline): 160 % of control; T/C (dose: 10.0 mg/kg/injection, schedule: Q04DX003 (sc), vehicle: saline): 114 % of control

Which results are given for `CC(=O)O[C@H]1C(=O)[C@@]2(C)[C@H]([C@H](OC(=O)c3ccccc3)[C@]3(O)C[C@H](OC(=O)[C@H](O)[C@@H](NC(=O)c4ccccc4)c4ccccc4)C(C)=C1C3(C)C)[C@]1(OC(C)=O)CO[C@@H]1C[C@@H]2O`?
T/C (dose: 25.0 mg/kg/injection, schedule: Q01DX010 (sc), vehicle: Klucel (hydroxypropylcellulose) (HPC)): 40 % of control; T/C [2]: 14 % of control

How did the T/C [3] turn out when `C(COCCOCC1CO1)OCCOCC1CO1` (stereo unspecified) was run?
The T/C was 108 % of control.

And the T/C [4]?
The T/C was 93 % of control.

And the T/C [5]?
The T/C was 46 % of control.

How did the T/C [1] turn out when `O=C(O)CSc1nc(-c2ccccc2)c(-c2ccccc2)n1-c1ccccn1` was run?
Its T/C is 94 % of control.

What about the T/C (dose: 100.0 mg/kg/injection, schedule: Q01DX010 (sc), vehicle: water) of the same molecule?
Its T/C is 60 % of control.

How did the T/C (dose: 75.0 micrograms/kg/injection, schedule: Q04DX003 (sc), vehicle: distilled water + alcohol) turn out when `CC[C@@H](C)[C@@H]1NC(=O)C(NC(=O)C(CC(C)C)N(C)C(=O)C2CCCN2C(=O)C(C)O)C(C)OC(=O)C(Cc2ccc(OC)cc2)N(C)C(=O)C2CCCN2C(=O)C(CC(C)C)NC(=O)C(C)C(=O)C(C(C)C)OC(=O)C[C@H]1O` (stereo partly specified) was run?
The T/C was 28 % of control.

And the T/C (dose: 600.0 micrograms/kg/injection, schedule: Q04DX003 (sc), vehicle: distilled water + alcohol)?
The T/C was 85 % of control and 87 % of control.

And the T/C (dose: 1200.0 micrograms/kg/injection, schedule: Q04DX003 (sc), vehicle: distilled water + alcohol)?
The T/C was 87 % of control.

With `CC[PH+](CC)CC[S-].CC[PH+](CC)CC[S-].[Au+].[Au+]` as the molecule, how does the T/C (dose: 40.0 mg/kg/injection, schedule: Q04DX003 (sc), vehicle: Klucel (hydroxypropylcellulose) (HPC)) read?
The T/C was 105 % of control.

And the T/C (dose: 160.0 mg/kg/injection, schedule: Q04DX003 (sc), vehicle: Klucel (hydroxypropylcellulose) (HPC))?
The T/C was 105 % of control.

And the T/C (dose: 320.0 mg/kg/injection, schedule: Q04DX003 (sc), vehicle: Klucel (hydroxypropylcellulose) (HPC))?
The T/C was 96 % of control.

How did the T/C [3] turn out when `C=CCOCC1CO1` (stereo unspecified) was run?
The T/C was 87 % of control.

What about the T/C [4] of the same molecule?
Its T/C is 104 % of control.

And the T/C [5]?
Its T/C is 69 % of control.

How did the T/C [6] turn out when `COc1cc2cc3cc4cc(OC)c(OC)cc4c(C)[n+]3cc2cc1OC` (tested in a mixture with another compound) was run?
The T/C was 105 % of control.

What about the T/C [7] of the same molecule?
Its T/C is 71 % of control.

And the T/C [8]?
The T/C was 71 % of control.

And the T/C (dose: 2400.0 mg/kg/injection, schedule: Q04DX003 (sc), vehicle: suspension in saline)?
The T/C was 53 % of control.

How did the T/C (dose: 6.25 mg/kg/injection, schedule: Q01DX010 (sc), vehicle: saline with Tween-80) turn out when `CCCCCCCC(=O)[O][Hg][CH2]C1COC([CH2][Hg][O]C(=O)CCCCCCC)CO1` (stereo unspecified) was run?
The T/C was 224 % of control.

And the T/C [9]?
The T/C was 106 % of control.

What about the T/C [10] of the same molecule?
The T/C was 75 % of control and 79 % of control.

What about the T/C (dose: 100.0 mg/kg/injection, schedule: Q01DX010 (sc), vehicle: saline with Tween-80) of the same molecule?
Its T/C is 61 % of control.

And the T/C (dose: 200.0 mg/kg/injection, schedule: Q01DX010 (sc), vehicle: saline with Tween-80)?
The T/C was 42 % of control.

What about the T/C (dose: 400.0 mg/kg/injection, schedule: Q01DX010 (sc), vehicle: saline with Tween-80) of the same molecule?
The T/C was 24 % of control.

`Brc1ccc(C[N+]23CN4CN(CN(C4)C2)C3)cc1` was tested. Which T/C (dose: 150.0 mg/kg/injection, schedule: Q04DX003 (sc), vehicle: saline with Tween-80) did it give?
Its T/C is 91 % of control.

And the T/C [11]?
The T/C was 101 % of control.

And the T/C [12]?
Its T/C is 76 % of control.

For `O=NN(CCCl)C(=O)NCCO`, which T/C (dose: 3.12 mg/kg/injection, schedule: Q04DX003 (sc), vehicle: water) is on record?
Its T/C is 49 % of control and 65 % of control.

What does the source list for `C[C@]12CC[C@@H]3c4ccc(O)cc4CC[C@H]3[C@@H]1CC[C@@H]2O`?
T/C (dose: 300.0 mg/kg/injection, schedule: Q04DX003 (sc), vehicle: Klucel (hydroxypropylcellulose) (HPC)): 120 % of control; T/C (dose: 600.0 mg/kg/injection, schedule: Q04DX003 (sc), vehicle: Klucel (hydroxypropylcellulose) (HPC)): 101 % of control; T/C (dose: 1200.0 mg/kg/injection, schedule: Q04DX003 (sc), vehicle: Klucel (hydroxypropylcellulose) (HPC)): 103 % of control; T/C (dose: 2400.0 mg/kg/injection, schedule: Q04DX003 (sc), vehicle: Klucel (hydroxypropylcellulose) (HPC)): 53 % of control

Which T/C [11] does the source give for `Nc1nc2c(ncn2C2OC(CO)C(O)C2O)c(=O)[nH]1` (stereo unspecified) here?
Its T/C is 50 % of control.

What about the T/C [12] of the same molecule?
Its T/C is 54 % of control.

What about the T/C [13] of the same molecule?
Its T/C is 42 % of control.

And the T/C (dose: 2400.0 mg/kg/injection, schedule: Q04DX003 (sc), vehicle: saline with Tween-80)?
The T/C was 46 % of control.

With `O=P(O)(NCCCl)NCCCl` as the molecule, how does the T/C [14] read?
Its T/C is 33 % of control.

Which results are given for `CCC1CN2C(=N1)c1ccccc1-c1cc(Cl)ccc12` (stereo unspecified)?
T/C (dose: 12.5 mg/kg/injection, schedule: Q01DX010 (sc), vehicle: saline with Tween-80): 54 % of control; T/C [9]: 60 % of control; T/C [10]: 107 % of control

How did the T/C [13] turn out when `C[Si](C)(CCl)N[Si](C)(C)CCl` was run?
The T/C was 81 % of control.

With `CN(C)C1C(=O)C(C(=O)NP(=O)(NCCCO)N(CCCl)CCCl)=C(O)C2(O)C(=O)C3=C(O)c4c(O)cccc4C(C)(O)C3CC12` (stereo unspecified) as the molecule, how does the T/C [11] read?
The T/C was 47 % of control.

What does the source list for `COc1cc(Cc2nccc3cc(OC)c(OC)cc23)c(C(C)=O)cc1OC`?
T/C [14]: 87 % of control; T/C (dose: 300.0 mg/kg/injection, schedule: Q04DX003 (sc), vehicle: saline): 88 % of control; T/C (dose: 600.0 mg/kg/injection, schedule: Q04DX003 (sc), vehicle: saline): 99 % of control; T/C (dose: 1200.0 mg/kg/injection, schedule: Q04DX003 (sc), vehicle: saline): 87 % of control

`NC(=S)c1ncn(C2OC(CO)C(O)C2O)c1N` (stereo unspecified) was tested. Which T/C (dose: 150.0 mg/kg/injection, schedule: Q04DX003 (sc), vehicle: suspension in saline) did it give?
Its T/C is 87 % of control.

And the T/C [6]?
The T/C was 102 % of control.

What about the T/C [7] of the same molecule?
Its T/C is 98 % of control.

What about the T/C [8] of the same molecule?
The T/C was 103 % of control.

Which T/C [6] does the source give for `CC(=O)Oc1c(C)[nH]ccc1=O` here?
The T/C was 73 % of control.

And the T/C [7]?
Its T/C is 65 % of control.

Which results are given for `O=C1N[C@@H]2C(=C[C@H](O)[C@@H](O)[C@H]2O)c2cc3c(c(O)c21)OCO3`?
T/C (dose: 2.5 mg/kg/injection, schedule: Q04DX003 (sc), vehicle: saline with Tween-80): 97 % of control; T/C (dose: 5.0 mg/kg/injection, schedule: Q04DX003 (sc), vehicle: saline with Tween-80): 109 % of control

What does the source list for `NC(=S)c1cn(C2OC(CO)C(O)C2O)c2ncnc(N)c12` (stereo unspecified)?
T/C (dose: 6.25 mg/kg/injection, schedule: Q04DX003 (sc), vehicle: suspension in saline): 58 % of control; T/C (dose: 12.5 mg/kg/injection, schedule: Q04DX003 (sc), vehicle: suspension in saline): 43 % of control

What does the source list for `CC1CN=C(c2ccc(NC(=O)c3ccc(C(=O)Nc4ccc(C5=NCC(C)N5)cc4)cc3)cc2)N1` (stereo unspecified)?
T/C (dose: 50.0 mg/kg/injection, schedule: Q01DX010 (sc), vehicle: Klucel (hydroxypropylcellulose) (HPC)): 213 % of control; T/C (dose: 100.0 mg/kg/injection, schedule: Q01DX010 (sc), vehicle: Klucel (hydroxypropylcellulose) (HPC)): 68 % of control; T/C (dose: 200.0 mg/kg/injection, schedule: Q01DX010 (sc), vehicle: Klucel (hydroxypropylcellulose) (HPC)): 94 % of control; T/C [2]: 84 % of control

How did the T/C (dose: 75.0 mg/kg/injection, schedule: Q01DX010 (sc), vehicle: saline + Tween-80 + alcohol) turn out when `CC1=CC(C)(C)Nc2ccc(CSc3ccccc3)cc21` was run?
The T/C was 105 % of control.

And the T/C (dose: 150.0 mg/kg/injection, schedule: Q01DX010 (sc), vehicle: saline + Tween-80 + alcohol)?
The T/C was 105 % of control.

What about the T/C (dose: 300.0 mg/kg/injection, schedule: Q01DX010 (sc), vehicle: saline + Tween-80 + alcohol) of the same molecule?
Its T/C is 85 % of control.
